Laboratory results: patent publication US7772197B2, “1,3,5-triazines for treatment of viral diseases” (1,3,5-Triazines for Treatment of Viral Diseases, priority 2002, dated 2010)
Like-named read-outs stand apart in the source and are kept apart here.

Legend:
[1] = test system: HIV-1 LAI; experiment: Treatment of HIV-1-infected MT-2 cells with nucleoside analogues, p24 ELISA; type: cell-based; conditions: for EC50: Human immunodeficiency virus 1, MT2, wild-type HIV strain LAI, MT-2 cells
Procedure: The strains of HIV-1 used for primary drug screening are HIV-1 LAI or the appropriate strain of NRTI resistant HIV for studies of cross-resistance. Virus was propagated on MT-2 cells at an multiplicity of infection (MOI) of 0.01 to generate virus stocks. Briefly, the MT-2 cells were suspended in RPMI 1640 media supplemented with 10% fetal bovine serum, streptomycin and penicillin (cRPMI) and grown in a 37° C. incubator containing 5% CO2. Serial dilution of the virus and infection of MT-2 cells were followed by an ELISA detecting the capsid protein of HIV-1 (p24) and used to determine the titer of the virus stocks (50% tissue culture infectious dose (TCID50)). The ELISA was performed according to the manufacturer's instructions. The MT-2 cells are also used for visualizing the cytopathic effects of HIV-1 growth (e.g. syncytia formation).
(§1) 0.1 ml of a 3×10^5 cells/ml MT-2 cell suspension were seeded in 96-well plates at 3×10^4 cells/well. The compounds to be assayed were diluted in a separate 96-well at ten times (10×) the concentration needed for the screen. 22 μl of the 10× compounds was then added to the wells in triplicate except for six control wells, containing uninfected MT-2 cells alone (3 wells) and untreated HIV-infected MT-2 cells (3 wells). This was followed by the addition of HIV-1 at an MOI of 0.01, except for the three wells serving as the uninfected control. 0.1 ml of cRPMI was added to the uninfected well instead of virus. After the addition of virus, the 96-well plate was centrifuged at 1,200×g for two hours to enhance the adsorption of the virus by the MT-2 cells (see, e.g., O'Doherty, J. Virol. 74:10074-10080 (2000)). After the centrifugation step, the 96-well plate was then incubated in a 37° C. incubator containing 5% CO2 for three days. At the end of this time period the virus and cells were mixed by gentle pipetting followed by a 1 minute spin at 600×g to pellet the cells. The supernatant of each well was then serially diluted 1,000-fold into new 96-well plates to serve as inoculum for the next passage and assayed by ELISA for the amount of p24 produced. The next passage was performed as described above, except that the virus used to infect the cells was derived from the 1,000-fold dilution plate. To generate an EC50 value, half-log concentrations of mutagenic nucleoside or nucleotide analogue capable of eradicating virus in a single passage are tested as above to generate a dose-response curve.

[2] = test system: HIV-1 RTMDR1, with 74V, 41L, 106A and 215Y mutations; experiment: Sensitivity of NRTI-resistant HIV strain RTMDR1, MT-2 cells; type: cell-based; conditions: Human immunodeficiency virus 1, MT2
Procedure: as §1, with “plate.” for “plate. To generate an EC50 value, half-log concentrations of mutagenic nucleoside or nucleotide analogue capable of eradicating virus in a single passage are tested as above to generate a dose-response curve.”
(§2) To determine if there is resistance of HIV NRTI resistant strains to mutagenic nucleoside analogues, NRTI resistant strains were grown in the presence of 5-aza-dC to determine whether the EC50 for 5-aza-dC is different from the WT strain (HIV-1 LAI). […] Growth of HIV NRTI resistant strains in the presence of the appropriate concentration of NRTI was used as a positive control.
Three HIV NRTI resistant strains (HIV-1 LAI-M184V, HIV-1 RTMDR1, with 74V, 41L, 106A and 215Y mutations, and HIV-1 RTMC, with 67N, 70R, 215F and 219Q mutations) were used to test the effectiveness of 5-aza-dC. […]

[3] = Cytotoxicity on MT-2 cells (MTT); type: cell-based; conditions: human
Procedure: For each compound, cytotoxicity was evaluated on MT-2 cells. MT-2 cells were seeded at 3×10^4 cells/well in 96-well plates. […] After 5 days growth in a 37° C. incubator containing 5% CO2, MTT was added to a final concentration of 0.5 mg/ml and then incubated for four hours at 37° C. 10% SDS in 0.02 N HCl was added to lyse the cells overnight at 37° C. The plates were read on a Tecan Genius microplate reader at wavelengths of 570 nm/650 nm. The dose response curve was graphed by comparing the treated cells with the untreated control and the IC50 was determined for each compound.

[4] = test system: HIV-1 RT proviral DNA; experiment: Frequency of mutations to the viral genome induced by 5-aza-dC (sequencing of proviral clones); type: cell-based; conditions: 30 μM
Procedure: The viral genomic DNA from cells treated with the deoxyribonucleoside analog 5-aza-dC (30 μM) was purified using a Qiagen DNeasy® Kit. 1 μg of genomic DNA was used to amplify a 1 kb region of the HIV-1 RT proviral DNA by PCR. The PCR product was then cloned into a TOPO® cloning vector. A Millipore Miniprep Kit was used to purify plasmid containing proviral inserts. About 45 positive clones were sequenced in both directions by a Beckman Coulter CEQ 8000. The sequencing results were analyzed and assembled using the DNASTAR Stagman program. Each mutated base was counted and the mutation rate was calculated over the total number of sequenced nucleotides. Sixty-one mutations were found in 26,187 bases sequenced in the 5-aza-dC treated cells. Only one mutation in the drug-free control could be confirmed by sequencing in both directions and thus, the mutation rate in the control may be overestimated. Thus, sequencing of a fragment of the nucleic acid encoding HIV reverse transcriptase has confirmed that 5-aza-dC is mutagenic to the viral genome.

[5] = test system: HIV-1 RTMC, with 67N, 70R, 215F and 219Q mutations; experiment: Sensitivity of NRTI-resistant HIV strain RTMC, MT-2 cells; type: cell-based; conditions: Human immunodeficiency virus 1, MT2
Procedure: as §1, with “plate.” for “plate. To generate an EC50 value, half-log concentrations of mutagenic nucleoside or nucleotide analogue capable of eradicating virus in a single passage are tested as above to generate a dose-response curve.”
as §2
(§3) Three HIV NRTI resistant strains (HIV-1 LAI-M184V, HIV-1 RTMDR1, with 74V, 41L, 106A and 215Y mutations, and HIV-1 RTMC, with 67N, 70R, 215F and 219Q mutations) were used to test the effectiveness of 5-aza-dC. […] Mutations include: M41L, E44D, A62V, K65R, D67N, T69DN, T69S_SS, K70R, L74V, V75I, F77L, Y115F, F116Y, V118I, Q151M, M184V, L210W, T215F and K219QE.
(§4) The effectiveness of DHAdC was tested against wild-type HIV strains and NRTI resistant HIV strains as described in Example 2. The following strains were tested: HIV-1 LAI, wild-type; HIV-I LAI-M184V-M184V mutation with resistance to lamivudine (3TC); HIV-1 RTMDR1-74V, 41L, 106A and 215Y mutations with resistance to zidovudine, didanosine, nevirapine and other non-nucleoside reverse transcriptase inhibitors; and HIV-1 RTMC-67N, 70R, 215F and 219Q with resistance to zidovudine.

[6] = cited from earlier work
[7] = test system: HIV-1 LAI-M184V; experiment: Sensitivity of NRTI-resistant HIV strain M184V, MT-2 cells; type: cell-based; conditions: Human immunodeficiency virus 1, MT2
Procedure: as §1, with “plate.” for “plate. To generate an EC50 value, half-log concentrations of mutagenic nucleoside or nucleotide analogue capable of eradicating virus in a single passage are tested as above to generate a dose-response curve.”
as §2, §3, §4

[8] = test system: bovine viral diarrhea virus (BVDV) Singer strain; experiment: Treatment of BVDV-infected BT cells; type: cell-based; conditions: Bovine viral diarrhea virus isolates and strains
Procedure: The BVDV strain used for drug testing was the Singer strain. This virus also causes a cytopathic effect that is measurable and allows estimation of the level of infection. The visible cytopathology can be used as an endpoint for titrating the virus by 50% tissue culture infectious dose (TCID50). The BVDV was propagated in bovine turbinate (BT cells). The virus TCID50 was determined by counting the cytopathic effect at the endpoint dilution. Briefly, confluent BT cells in 96-well plates were infected with the virus at 8 independent serial 10-fold dilutions. All the plates were incubated for five days at 37° C. in 5% CO2. Each well was scored as positive or negative appearance of visible cytopathic effect. The titers were calculated by the method of Reed and Muench, Am. J. Hyg. 27:493-497 (1938), and the mean titer and standard deviation for each of the 3 replicates for each drug concentration and the positive and negative control were calculated.
Virus susceptible cells (CV-1 or BT cells) were seeded in 96-well plates at 2×10^4 cells/well. The virus was inoculated onto the cell monolayers at a MOI of 0.001˜0.002 to keep 30 plaque forming units (pfu) in each well. The inoculum was maintained in 37° C. for about one hour and the supernatant was discarded. Fresh media containing appropriate drug concentration was added in each well. […] The virus titer was determined as described above. […]

[9] = test system: Measles virus (MV) Nagahata strain; experiment: Treatment of measles virus-infected CV-1 cells; type: cell-based; conditions: Measles morbillivirus
Procedure: MV Nagahata strain was used for drug testing. Compared to some laboratory strains, this virus strain replicates lytically in primary human embryonic lung cells and causes extensive cytopathic effect during acute infection. The virus stock was prepared by growing the virus on CV-1 cells at a MOI of 0.01. The titer of the virus stock was determined by plaque formation assay after series dilution.
Virus susceptible cells (CV-1 or BT cells) were seeded in 96-well plates at 2×10^4 cells/well. The virus was inoculated onto the cell monolayers at a MOI of 0.001˜0.002 to keep 30 plaque forming units (pfu) in each well. The inoculum was maintained in 37° C. for about one hour and the supernatant was discarded. Fresh media containing appropriate drug concentration was added in each well. Untreated control was run in parallel. Each drug was tested in triplicate. Three days after infection, cytopathic effect (CPE) was examined in the untreated control wells. […] The plates went through one “freeze-thaw” cycle to release intracellular virus. The virus stock was saved for next round of passage. The virus titer was determined as described above. Virus at a titer of 10^5˜10^6 pfu/ml was produced by this method.

[10] = test system: HIV; experiment: HIV infected SCID-Hu mice; type: in vivo; conditions: 30 mg/kg/day
Procedure: After completion of this toxicology experiment, SN1212 was tested in HIV infected SCID-Hu mice. […] The discordance between viral infectivity and conventional surrogate markers of viral load, such as p24 or HIV RNA, is not surprising, as it has also been observed in vitro, and reflects the increased proportion of non-infectious viral particles in the presence of SN1212. It is also interesting to note that, of the treated groups, the immunologic profile of the SN1212 groups most closely resemble that of the uninfected group. This is compatible with the finding that infection with less “fit” viruses provides a relative clinical benefit by preserving cellular immunity.

Structure (SMILES): CN1CN([C@H]2C[C@H](O)[C@@H](CO)O2)C(=O)N=C1N [MeDHAdC, 5-methyl-5,6-dihydro-5-azadeoxycytidine]
- EC50 [1]: 10000 nM

Structure (SMILES): Nc1ncn([C@H]2C[C@H](O)[C@@H](CO)O2)c(=O)n1 [Compound 5-aza-dC, 2′-deoxy-5-azacytidine]
- EC50 [2]: 10 nM
- IC50 at 5 days [3]: > 10000 nM
- mutation rate % ([4]; 1 kb region of HIV-1 RT proviral DNA): 0.223%
- MUTATIONS/NUCLEOTIDE ([4]; 1 kb region of HIV-1 RT proviral DNA, 26,187 nucleotides sequenced): 61/
- AΠC CΠA mutations ([4]; number of mutations): 0
- AΠT TΠA mutations ([4]; number of mutations): 8
- CΠG GΠC mutations ([4]; number of mutations): 13
- GΠA AΠG mutations ([4]; number of mutations): 24
- GΠT TΠG mutations ([4]; number of mutations): 10
- TΠC CΠT mutations ([4]; number of mutations): 6
- EC50 [5]: 5 nM
- EC50 [1]: 3 nM
- eradication of HIV ([1]; viral passage in MT-2 cells): capable of eradicating HIV in a single passage
- time to 10% degradation ([6]; pH 7.0, 25° C.): 5 h
- time to 10% degradation ([6]; pH 7.0, 50° C.): 0.5 h
- EC50 [7]: 10 nM

Structure (SMILES): Nc1ncn([C@@H]2O[C@H](CO)[C@@H](O)[C@H]2O)c(=O)n1 [Compound 5-aza-C, 5-Azacytidine]
- EC50 [8]: 10000 nM
- EC50 [9]: 15000 nM

Structure (SMILES): Nc1ccn([C@@H]2CS[C@H](CO)O2)c(=O)n1 [Compound 3TC, lamivudine, reference compound]
- CD4+ [10]: 6.9%
- CD4+ CD8+ [10]: 77%
- CD8+ [10]: 4.2%
- HIV-1 RNA ([10]; ** p < 0.05): 2.0** log copies/10^6 cells
- Viral liter ([10]; ** p < 0.05): 0** viruses/10^6 cells
- p24 ([10]; ** p < 0.05): 0** pg/10^6 cells
- EC50 [5]: 330 nM
- EC50 [1]: 45 nM
- EC50 [7]: > 32000 nM

Structure (SMILES): Cc1cn([C@H]2C[C@H](N=[N+]=[N-])[C@@H](CO)O2)c(=O)[nH]c1=O [AZT, zidovudine]
- EC50 [2]: 60 nM
- EC50 [5]: 300 nM
- EC50 [1]: 10 nM
- EC50 [7]: 10 nM
